Values belong to the molecule of their own block, whether it stands above or below them.
How the values were obtained:
GST-Xa-hAAK1 = GST-Xa-hAAK1 (Homo sapiens (Human), UniProt Q2M2I8); test: AAK1 Kinase Assay; type: biochemical; conditions: ATP 22 μM; GST-Xa-hAAK1 3.5 nM; 3 hours at room temperature
Protocol: The assays were performed in U-bottom 384-well plates. […] The reactions were initiated by the combination of bacterially expressed, GST-Xa-hAAK1 with substrates and test compounds. The reactions were incubated at room temperature for 3 hours and terminated by adding 60 μl of 35 mM EDTA buffer to each sample. The reactions were analyzed on the Caliper LabChip 3000 (Caliper, Hopkinton, Mass.) by electrophoretic separation of the fluorescent substrate and phosphorylated product. […] Compounds were dissolved at 10 mM in dimethylsulfoxide (DMSO) and evaluated at eleven concentrations. IC50 values were derived by non-linear regression analysis.

PC12 cells = conditions: cited from earlier work
HCV [1] = conditions: Huh-7.5 cells; cited from earlier work
HCV [2] = conditions: Huh-7.5 cells; cited from earlier work; remark: listed apart in the source

GST-Xa-hAAK1, sequence (Q2M2I8 whole entry): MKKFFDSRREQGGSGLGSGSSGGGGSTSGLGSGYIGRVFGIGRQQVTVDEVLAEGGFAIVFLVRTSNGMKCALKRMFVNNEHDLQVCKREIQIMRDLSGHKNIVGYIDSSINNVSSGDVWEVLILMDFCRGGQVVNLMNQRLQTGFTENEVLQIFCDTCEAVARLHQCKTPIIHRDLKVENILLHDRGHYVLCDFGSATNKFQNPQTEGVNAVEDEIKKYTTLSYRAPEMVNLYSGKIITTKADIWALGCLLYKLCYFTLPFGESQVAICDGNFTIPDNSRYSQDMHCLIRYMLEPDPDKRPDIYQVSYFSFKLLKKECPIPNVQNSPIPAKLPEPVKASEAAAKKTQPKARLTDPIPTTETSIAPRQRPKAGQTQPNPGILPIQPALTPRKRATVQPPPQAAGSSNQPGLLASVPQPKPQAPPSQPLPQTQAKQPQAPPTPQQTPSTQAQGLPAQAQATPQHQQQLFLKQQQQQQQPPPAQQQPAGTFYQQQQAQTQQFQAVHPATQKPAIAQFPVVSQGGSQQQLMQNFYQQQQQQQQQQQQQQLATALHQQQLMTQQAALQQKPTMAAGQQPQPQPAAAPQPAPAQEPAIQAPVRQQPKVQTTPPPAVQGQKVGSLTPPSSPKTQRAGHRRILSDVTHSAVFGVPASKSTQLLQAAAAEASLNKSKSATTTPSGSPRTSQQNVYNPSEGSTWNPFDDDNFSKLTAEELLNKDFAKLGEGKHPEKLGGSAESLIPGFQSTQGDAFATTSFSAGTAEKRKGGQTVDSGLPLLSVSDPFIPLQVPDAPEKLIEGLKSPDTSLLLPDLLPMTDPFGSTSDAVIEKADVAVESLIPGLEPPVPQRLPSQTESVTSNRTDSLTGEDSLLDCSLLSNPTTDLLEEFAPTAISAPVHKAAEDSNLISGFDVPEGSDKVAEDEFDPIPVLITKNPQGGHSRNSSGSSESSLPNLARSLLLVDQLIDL

- IC50 (GST-Xa-hAAK1): 4.8 nM
SMILES: CC(C)C[C@](C)(N)COc1ccc(-c2ccnc3cc(F)ccc23)nc1Cl [Example 136, (S)-1-((2-chloro-6-(7-fluoroquinolin-4-yl)pyridin-3-yl)oxy)-2,4-dimethylpentan-2-amine]

SMILES: COC(=O)[C@@]1(O)C[C@H]2O[C@]1(C)n1c3ccccc3c3c4c(c5c6ccccc6n2c5c31)C(=O)NC4 [Example K252a, K252a]
- effect on Neuregulin-1 induced neurite outgrowth (PC12 cells): potentiation of Neuregulin-1 induced neurite outgrowth

SMILES: CCN(CC)CCNC(=O)c1c(C)[nH]c(/C=C2\C(=O)Nc3ccc(F)cc32)c1C [sunitinib]
- effect on HCV virion assembly (HCV [1]): reduced HCV virion assembly
- effect on HCV entry (HCV [2]): inhibit HCV entry
